Data on three compounds can be found in article PMC6749586, “Design, Synthesis, and Anticancer Effect Studies of Iridium(III) Polypyridyl Complexes against SGC-7901 Cells” (Molecules, 2019).

Each structure is given as a SMILES string.

For orientation: IC50 means the point on the concentration scale where inhibition reaches its midpoint.

Holding throughout (type): cell-based, human
The subject of experiment [1] is SGC-7901 cells. The experiment in a line: MTT cytotoxicity assay, SGC-7901. The conditions noted are these: 48 h; for IC50: read-out: IC50 toward SGC-7901. The source says:
(§1) The lung carcinoma cell line A549, the cervical cancer cell line HeLa, the esophageal cancer cell line Eca-109, and the human hepatocellular carcinoma cell line BEL-7402 were purchased from the cell bank of the Cell Institute of Sinica Academia Shanghai (Shanghai, China). The gastric adenocarcinoma cell line SGC-7901, the hepatocellular carcinoma cell line HepG2, and the mouse embryonic fibroblast cell line NIH 3T3 were obtained from the Experimental Animal Center of Sun Yat-Sen University (Guangzhou, China). The BEL-7402 and SGC-7901 cell lines were cultured in Roswell Park Memorial Institute Medium (RPMI-1640); and A549, Eca-109, HepG2, and NIH 3T3 cells were grown in Dulbecco’s Modified Eagle’s Medium (DMEM), including 10% fetal bovine serum (FBS), 100 units mL^−1 penicillin/streptomycin mixture, and 2.0 g/L of NaHCO3. Cell passage experiments were performed with trypsin every 2 days to maintain exponential growth. All cells were cultured until they reached logarithmic growth phase, unless specifically noted.
(§2) Cell cytotoxicity following treatment with the iridium(III) complexes was detected by MTT assay. The cells were seeded into 96-well micro-assay culture plates (1 × 10^4 cells per well) and grown overnight in a 5% CO2 incubator at 37 °C. Then, the cell lines were treated with gradient concentrations of the complexes 1–3. After treatment for 48 h, MTT solution (5 mg mL^−1, […]) dissolved in phosphate buffer was added to each well and the cells were further cultured for 4 h. Upon completion of incubation, the solvent was removed and 100 µL/well of buffer containing dimethylformamide (50%) and sodium dodecyl sulfate (20%) was added to dissolve the produced formazan. The absorbance of each well was measured with a microplate reader at a wavelength of 490 nm. The IC50 values were determined from the plots of viability versus concentration used to treat the cells. Three independent experiments were performed to obtain the mean values.

Experiment [2] relates to A549 cells. The experiment in a line: MTT cytotoxicity assay, A549. The conditions noted are these: 48 h, read-out: IC50 toward A549.
Excerpt: as §1, §2

In experiment [3] the test system is SGC-7901 cells. The experiment in a line: Transwell cell invasion assay. Conditions: 4.0 µM 1, 15.0 µM 2, 15.0 µM 3, 24 h, Matrigel Transwell. How it is done: To analyze the efficacy of the iridium(III) complexes in preventing migration and offsetting the invasion potential of SGC-7901 cells, 24-well Transwell chambers coated with matrigel were used. The cells were trypsinized and re-suspended in serum-free RPMI-1640 at a density of 1.8 × 10^5 cells/mL. Then, 100 μL of the cell suspension and different concentrations of the complexes were placed in the top chambers of the Transwell plates, and 500 μL of RPMI-1640 containing 20% FBS was added to the lower chambers. After co-incubation for 24 h, non-invading cells in the top chambers of the Transwell plates were scraped away by cotton swabs, and invaded cells were fixed with paraformaldehyde for 15 min and stained with crystal violet solution (0.1%) for 20 min. The cells that invaded the underside of the Transwell plates were photographed with a microscope.

Experiment [4] relates to SGC-7901 cells. The experiment is described as follows: Western blot analysis of apoptosis-related proteins. Conditions: 4.0 µM 1, 15.0 µM 2, 15.0 µM 3, 24 h. How it is done:
The SGC-7901 cancer cells were seeded on 6-well plates at a density of 5 × 10^5 cells per well. Following incubation for 24 h, the cells were treated with 1–3 for 24 h. Next, total proteins were extracted from the cells after incubation in lysis radioimmunoprecipitation assay (RIPA) buffer for 30 min on ice. After centrifugation (13,000× g, 4 °C, 20 min) of the cell suspension, the supernatants were obtained. Protein concentrations were determined using a BCA (bicinchoninic acid) protein assay kit. Equal amounts of denatured proteins were fractionated by electrophoresis on SDS-polyacrylamide gel at 50 V for 3 h. A pre-stained color protein marker was used as the internal reference. The gels were then segmented, transferred to polyvinylidene fluoride (PVDF) membranes (Millipore, Burlington, MA, USA) and then blocked with 5% non-fat milk in TBST buffer (150 mM NaCl, 20 mM Tris-HCl, 0.05% Tween 20, pH = 8.0) for 2 h. […] Further hybridization with the secondary antibodies (diluted 1:5000) conjugated with horseradish peroxidase was performed after washing the membranes three times in TBST buffer with shaking. Each protein was visualized using an enhanced chemiluminescence (ECL) detection kit, in accordance with the manufacturer’s instructions. Finally, the blot images were photographed by a computerized imaging system.
Background: A western blot detects proteins with antibodies after separation by electrophoresis.

In experiment [5] the test system is SGC-7901 cells. The experiment in a line: Annexin V-FITC/PI apoptosis analysis by flow cytometry. The conditions noted are these: 4.0 µM 1, 15.0 µM 2 or 3; for Early apoptotic cells (EA): 24 h (b62 says 48 h), control 2.84%. How it is done:
A total of 1 mL of SGC-7901 cells at 2 × 10^6 cells/mL was seeded in a six-well plate and incubated overnight in a CO2 incubator at 37 °C. Then, the cells were treated with 1, 2, or 3 for 24 h. After treatment, the cells were harvested, washed three times with ice-cold PBS, and then re-suspended in 195 μL of 1 × Annexin V-FITC binding buffer. Next, 10 μL of PI and 5 μL of Annexin-FITC were sequentially added to each sample, stained in the dark for 20 min, and analyzed by a FACS Calibur flow cytometer ([…] Dickinson & Co., Franklin Lakes, NJ, USA). Annexin-V positive cells were considered apoptotic.
In general terms: Flow cytometry measures light scatter and fluorescence of single cells or particles in a stream.

The subject of experiment [6] is Eca-109 cells. The experiment is described as follows: MTT cytotoxicity assay, Eca-109. The conditions noted are these: 48 h, read-out: IC50 toward Eca-109. The source says:
The lung carcinoma cell line A549, the cervical cancer cell line HeLa, the esophageal cancer cell line Eca-109, and the human hepatocellular carcinoma cell line BEL-7402 were purchased from the cell bank of the Cell Institute of Sinica Academia Shanghai (Shanghai, China). The gastric adenocarcinoma cell line SGC-7901, the hepatocellular carcinoma cell line HepG2, and the mouse embryonic fibroblast cell line NIH 3T3 were obtained from the Experimental Animal Center of Sun Yat-Sen University (Guangzhou, China). […] Cell passage experiments were performed with trypsin every 2 days to maintain exponential growth. All cells were cultured until they reached logarithmic growth phase, unless specifically noted. Cell cytotoxicity following treatment with the iridium(III) complexes was detected by MTT assay. The cells were seeded into 96-well micro-assay culture plates (1 × 10^4 cells per well) and grown overnight in a 5% CO2 incubator at 37 °C. Then, the cell lines were treated with gradient concentrations of the complexes 1–3. After treatment for 48 h, MTT solution (5 mg mL^−1, […]) dissolved in phosphate buffer was added to each well and the cells were further cultured for 4 h. […] The absorbance of each well was measured with a microplate reader at a wavelength of 490 nm. The IC50 values were determined from the plots of viability versus concentration used to treat the cells. Three independent experiments were performed to obtain the mean values.
(In general: Tetrazolium assays rely on reduction of a dye to a coloured formazan, in cell work by metabolically active cells.)

On to `F[P-](F)(F)(F)(F)F.Nc1c(N)c2cccnc2c2ncccc12.[Ir+3].[c-]1ccccc1-c1ccccn1.[c-]1ccccc1-c1ccccn1` [Complex 3, [Ir(Hppy)2(DAP)]PF6], for which, in experiment [1], the IC50 was found to be 11.1 ± 1.3 µM. The half-maximal inhibitory concentration (IC50) in experiment [2] was greater than 100 µM. Besides, the “Inhibitory percentage of cell invasion” value in experiment [3] was 48.90%. In experiment [4], the “Expression level of Bax” value is listed as “increased”, the “Expression level of Bcl-2” value was “dramatically decreased”, the “Expression level of Bcl-xL” value was “dramatically decreased” and the “Expression level of phosphorylated p53 (P-p53)” value (“Expression level … (P-p53)” below) was “dramatically decreased”. Besides, in experiment [5], the “Percentage including early and late apoptotic cells” value is 41.8%; the “Early apoptotic cells (EA)” value stood at 13.7%. For the same compound, in experiment [6], the IC50 was 97.1 ± 0.2 µM.
Take `F[P-](F)(F)(F)(F)F.Nc1c([N+](=O)[O-])c2cccnc2c2ncccc12.[Ir+3].[c-]1ccccc1-c1ccccn1.[c-]1ccccc1-c1ccccn1` [Complex 2, [Ir(Hppy)2(NAP)]PF6]: the IC50 in experiment [1] worked out at 14.1 ± 0.5 µM. Further, the half-maximal inhibitory concentration (IC50) in experiment [2] came out at 80.6 ± 1.4 µM. Also, the “Inhibitory percentage of cell invasion” value in experiment [3] turned out to be 46.01%. Also, in experiment [4], the “Expression level of Bax” value is “increased”, the “Expression level of Bcl-2” value was “dramatically decreased”, the “Expression level of Bcl-xL” value was “dramatically decreased” and the “Expression level … (P-p53)” value is “dramatically decreased”. In addition, in experiment [5], the “Percentage including early and late apoptotic cells” value is 35.6%; the “Early apoptotic cells (EA)” value came to 14.8%. The IC50 in experiment [6] is 72.6 ± 5.3 µM.
For `F[P-](F)(F)(F)(F)F.O=[N+]([O-])c1cc2ccc[n+]3c2c2c1ccc[n+]2[Ir-5]312([c]3ccccc3-c3cccc[n+]31)[c]1ccccc1-c1cccc[n+]12` [Complex 1, [Ir(Hppy)2(NP)]PF6], in experiment [1], the “IC50 toward SGC-7901” value is given as “the same cytotoxicity as cisplatin” and the IC50 was found to be 3.6 ± 0.1 µM. In experiment [2], the half-inhibitory concentration (IC50) was found to be 14.3 ± 2.4 µM. In addition, the “Inhibitory percentage of cell invasion” value in experiment [3] came out at 51.09%. For the same compound, in experiment [4], the “Expression level of Bax” value was “increased”, the “Expression level of Bcl-2” value is “dramatically decreased”, the “Expression level of Bcl-xL” value is given as “dramatically decreased” and the “Expression level … (P-p53)” value was “dramatically decreased”. In addition, in experiment [5], the “Percentage including early and late apoptotic cells” value is 37.07%; the “Early apoptotic cells (EA)” value is given as 29.9%. Further, in experiment [6], the half-inhibitory concentration (IC50) was 20.3 ± 0.9 µM.
